Results as given in ChEMBL document CHEMBL1201862, “PubChem BioAssay data set” (2004).
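Exposure lasted 48 hours, with cells grown in 96-well plates and compounds tested at five concentrations. Abbreviation: GI50, concentration required for 50% inhibition of growth.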 Calls of active or inactive are those of the source. Rule as the data show it: active = GI50 up to about 1.1 µM and inactive = higher.

Columns and labels:
Test in all cases: growth of human tumour cells (NCI), 48 h
786-0 = system: 786-0
KM12 = system: KM12
U-251 = system: U-251
TK-10 = system: TK-10
NCI-H23 = system: NCI-H23
SF-539 = system: SF-539
SK-MEL-28 = system: SK-MEL-28
SK-MEL-2 = system: SK-MEL-2
HOP-92 = system: HOP-92
K562 = system: K562
SNB-19 = system: SNB-19
HOP-62 = system: HOP-62
UACC-62 = system: UACC-62
CAKI-1 = system: CAKI-1
SNB-75 = system: SNB-75

Measured: GI50

O=C1CC23CCCCCCCCCCC2(C1)CC(=O)C3 (stereo unspecified)
inactive: 786-0 32.6 µM | KM12 21.3 µM | U-251 22.8 µM | TK-10 38.5 µM | NCI-H23 32.1 µM | SF-539 33.7 µM | SK-MEL-28 38.7 µM | SK-MEL-2 19.5 µM | HOP-92 21.1 µM | K562 27.5 µM | SNB-19 22.9 µM

CC(=O)Nc1ccc(/C=c2\sc3nnc(CCC(=O)Nc4ccccc4Cl)n3c2=O)cc1
inactive: 786-0 21.8 µM | HOP-62 54 µM | UACC-62 23.9 µM | KM12 20.9 µM | CAKI-1 > 100 µM | U-251 17.9 µM | TK-10 37.8 µM | NCI-H23 46.3 µM | SF-539 23.5 µM | SK-MEL-28 23 µM | SK-MEL-2 31.9 µM | HOP-92 27.4 µM | K562 24.2 µM | SNB-19 38.9 µM

COc1nc2c(nc(N)n2C2OC(CO)C(O)C(O)C2O)c(=O)[nH]1 (stereo unspecified)
inactive: 786-0 > 100 µM | SNB-75 > 100 µM | HOP-62 > 100 µM | UACC-62 > 100 µM | KM12 > 100 µM | CAKI-1 > 100 µM | U-251 > 100 µM | TK-10 > 100 µM | NCI-H23 > 100 µM | SF-539 > 100 µM | SK-MEL-28 > 100 µM | HOP-92 > 100 µM | K562 > 100 µM | SNB-19 > 100 µM

CCCCCCCCCCCCOC(=S)NC
inactive: 786-0 19 µM | SNB-75 29.9 µM | HOP-62 22.2 µM | UACC-62 17.1 µM | KM12 14.3 µM | U-251 18.3 µM | TK-10 12.8 µM | NCI-H23 20.4 µM | SF-539 18.2 µM | SK-MEL-28 20 µM | SK-MEL-2 14.6 µM | HOP-92 15.5 µM | K562 19.6 µM | SNB-19 33.4 µM

COc1ccc(OC)c2c(C(=O)O)c(Cc3ccccc3)ccc12
inactive: 786-0 > 100 µM | SNB-75 > 100 µM | HOP-62 > 100 µM | UACC-62 > 100 µM | KM12 > 100 µM | CAKI-1 > 100 µM | U-251 > 100 µM | TK-10 > 100 µM | NCI-H23 > 100 µM | SK-MEL-28 > 100 µM | SK-MEL-2 > 100 µM | K562 > 100 µM | SNB-19 > 100 µM

O=c1cc(-c2ccccc2)[nH]c2c(Cl)cccc12
inactive: 786-0 26.3 µM | SNB-75 13.8 µM | HOP-62 7.26 µM | UACC-62 4.55 µM | U-251 87.5 µM | TK-10 > 100 µM | NCI-H23 63.2 µM | SF-539 15.3 µM | SK-MEL-28 > 100 µM | SK-MEL-2 6.97 µM | K562 2.77 µM | SNB-19 20.5 µM

C/C(CC(=O)NCCc1ccccc1)=N\NC(=O)C[n+]1ccccc1
inactive: 786-0 > 100 µM | SNB-75 > 100 µM | HOP-62 > 100 µM | UACC-62 > 100 µM | KM12 > 100 µM | U-251 > 100 µM | TK-10 > 100 µM | NCI-H23 > 100 µM | SF-539 > 100 µM | SK-MEL-28 > 100 µM | SK-MEL-2 > 100 µM | HOP-92 > 100 µM | K562 > 100 µM

CCOc1ccccc1NC(=O)CC(C(=O)OC)C(=O)C(=O)OC (stereo unspecified)
inactive: 786-0 > 100 µM | HOP-62 > 100 µM | UACC-62 > 100 µM | KM12 > 100 µM | CAKI-1 > 100 µM | U-251 > 100 µM | TK-10 > 100 µM | NCI-H23 > 100 µM | SF-539 > 100 µM | SK-MEL-28 > 100 µM | SK-MEL-2 > 100 µM | HOP-92 > 100 µM | K562 > 100 µM | SNB-19 > 100 µM

CCN(CC)CCC(=O)/C=C/c1ccc(C)cc1
inactive: 786-0 11.9 µM | SNB-75 15.6 µM | HOP-62 25.7 µM | UACC-62 16.6 µM | KM12 3.18 µM | CAKI-1 1.83 µM | U-251 10.2 µM | TK-10 6.85 µM | NCI-H23 17.1 µM | SF-539 6.32 µM | SK-MEL-28 14.8 µM | HOP-92 19.2 µM | K562 19.5 µM | SNB-19 19.3 µM

C(=C\c1cc(CCc2nc3ccccc3[nH]2)n[nH]1)/c1ccccc1
inactive: 786-0 > 100 µM | SNB-75 > 100 µM | HOP-62 > 100 µM | UACC-62 > 100 µM | KM12 > 100 µM | CAKI-1 > 100 µM | U-251 > 100 µM | TK-10 > 100 µM | NCI-H23 > 100 µM | SF-539 > 100 µM | SK-MEL-28 > 100 µM | HOP-92 > 100 µM | K562 > 100 µM | SNB-19 > 100 µM

CCOC(=O)CNC(=O)c1nc[nH]c1/N=N/N(C)C
inactive: 786-0 > 100 µM | SNB-75 > 100 µM | HOP-62 > 100 µM | UACC-62 > 100 µM | KM12 > 100 µM | CAKI-1 > 100 µM | U-251 > 100 µM | TK-10 > 100 µM | NCI-H23 > 100 µM | SF-539 > 100 µM | SK-MEL-28 > 100 µM | SK-MEL-2 > 100 µM | K562 > 100 µM | SNB-19 > 100 µM

COC(=O)C(CC(=O)c1ccccc1)c1ccccc1NC(C)=O (stereo unspecified)
inactive: 786-0 > 100 µM | SNB-75 87.1 µM | HOP-62 > 100 µM | UACC-62 > 100 µM | KM12 > 100 µM | CAKI-1 > 100 µM | U-251 > 100 µM | TK-10 > 100 µM | NCI-H23 > 100 µM | SF-539 > 100 µM | SK-MEL-28 > 100 µM | HOP-92 > 100 µM | K562 > 100 µM | SNB-19 > 100 µM

O=C(CC/C(CC(=O)c1ccc(Br)cc1)=N\O)Nc1ccc(Cl)c(Cl)c1
inactive: 786-0 > 100 µM | SNB-75 23.8 µM | HOP-62 > 100 µM | UACC-62 27.2 µM | KM12 67.8 µM | U-251 > 100 µM | TK-10 18 µM | NCI-H23 > 100 µM | SF-539 > 100 µM | SK-MEL-28 > 100 µM | SK-MEL-2 > 100 µM | HOP-92 68.2 µM | K562 25.4 µM

CC1CC2(S(=O)(=O)c3ccccc3)ON1CC2S(=O)(=O)c1ccccc1 (stereo unspecified)
inactive: 786-0 > 100 µM | SNB-75 > 100 µM | HOP-62 > 100 µM | UACC-62 > 100 µM | KM12 > 100 µM | CAKI-1 > 100 µM | U-251 > 100 µM | TK-10 > 100 µM | NCI-H23 > 100 µM | SF-539 42.3 µM | SK-MEL-28 > 100 µM | SK-MEL-2 > 100 µM | K562 > 100 µM | SNB-19 > 100 µM

CC1=C/C(=C2/N=C(N(C)C)SS2)C(C)=N1.[O-][Cl+3]([O-])([O-])O
inactive: 786-0 > 100 µM | SNB-75 > 100 µM | HOP-62 > 100 µM | KM12 > 100 µM | CAKI-1 > 100 µM | U-251 > 100 µM | TK-10 > 100 µM | NCI-H23 6.47 µM | SF-539 > 100 µM | SK-MEL-28 > 100 µM | HOP-92 > 100 µM | K562 42.1 µM | SNB-19 > 100 µM
